Assay results from patent publication US20190125753A1, “COMPOUNDS AND METHODS FOR INCREASING HEMATOPOIESIS” (University of Southern California, priority 2016, published 2019).

How the values were obtained:
[1] = system: H9 human embryonic stem cells; experiment: Maintenance of human ES cell pluripotency, 5 days; format: cell-based; details: 25 ng/ml Wnt3a; 500 nM YH249 or 200 nM YH250, 5 days, without FGF and TGF
Method: We also determined that IQ-1 indirectly, via binding to the PR72/130 subunit of PP2A, inhibited the p300/β-catenin interaction (Id). Therefore, we anticipated that YH249/250 should also maintain mESC pluripotency in a Wnt dependent manner. To test his, R1 mESCs were cultured under feeder free conditions in the presence or absence of YH249/250 for 5 days. […] Pluripotency markers, Oct4, Nanog, Sox2, SSEA-1 and ALP, were all expressed in the cells treated with Wnt3a and YH250 (FIG. 28b). Moreover, Wnt3a could be replaced with the selective GSK-3 inhibitor CHIR99021, which activates the Wnt signaling pathway (FIG. 28a, lower panel). […] In the event, similarly to ID-8, the combination of Wnt3a and YH249/250 provided morphologically undifferentiated colonies of H9 human embryonic stem cells (hESCs) without FGF and TGF (FIG. 28c). hPSC markers were detected by ALP staining and immunofluorescence (FIG. 28d). In addition to H9 cells, two other hESC lines and a human induced pluripotent stem (iPS) cell line could be also maintained undifferentiated morphology utilizing the same conditions (not shown).
Specifically, FIG. 28A-28D, show maintenance of ESC's pluripotency by YH249 and YH250. […] 28A, Typical colony morphologies of RI mouse ES cells cultured 5 days in [upper panel] […]

Wnt/β-catenin pathway = experiment: SuperTOPFLASH (STF1.1 Hek-293) Wnt/β-catenin-driven luciferase reporter; format: cell-based; details: Homo sapiens, HEK293; STF1.1 Hek-293; 1 hour pre-incubation, 10 mM LiCl 24 hours
Method: A. Wnt/β-Catenin Activity: The Initial SuperTOPFLASH Screen.
Hek293 cells were stably transfected with plasmid that contains multiple TCF/LEF fragments in front of Luciferase gene. Wnt/β-catenin activity was determined from luciferase expression levels. […] Briefly, stably transfected Hek-293, STFI.1 (Wnt/β-catenin-driven luciferase) and Survivin-Hek-293 (1 Kb Human survivin promoter-driven luciferase) cells were maintained in DMEM, 10% FBS, Pen/Strep with 400 μg/mL G418 or 2 μg/mL puromycin, respectively. To check the activity of ICG-001, YH249, and YH250, the cells were split into white-opaque 96-well plates at 10,000 cells per well and allowed to attach overnight. For SuperTOPLASH, the inhibitors were added to the cells and pre-incubated for 1 hour prior to stimulation with 10 mM Li Cl for 24 hours. Luciferase activity was read using BrightGlo (Promnega) luciferase substrate. For survivin/luc, the inhibitors were added to the cells and incubated for 24 hours prior to readout. To calculate IC5o values, the resulting curve was fitted to a four-parameter logistic model (4PL) using GraphPad Prism 5 software.
An endogenous human survivin 1 kb promoter was inserted before a luciferase gene. […] R1 and R2 were diversified in this study. Percent inhibition of luciferase activity was calculated according to the following equations; % inhibition of STF 1.1 reporter activity=(I−RLU(10 mM LiCl) treated/RLU(10 omM LiCl) vehicle×control)100, % inhibition of Survivin reporter activity=(1−RLUtreated/RLU vehicle control)×100. Error bars indicate the mean±SE of 3 separate experiments. Selectivity (FIG. 2H) was calculated by IC50 value for Survivin-Hek-293/IC50 value for STF 1.1.

bone marrow HSPC [2] = experiment: Multiple administration, competitive repopulation assay; format: in vivo, mouse
Method: The golden standard to determine HSPC number and activity is a competitive repopulation assay. The testing cells and competitor cells are mixed and transplanted to recipients to create an environment the testing cells compete with competitor cells to repopulate the recipients' hematopoietic system. The quantitative engraftment level reflects the testing cell stem/progenitor cell number.
In this study, donor mice (CD45.2) were treated with YH250 or DMSO every 48 hs for 4 round, then, bone marrow cells from the treated mice were recovered and mixed with competitive cells from non-treated normal mice for BMT to lethally irradiated recipients (FIG. 16A). Blood were collected periodically from recipient mice to determine HSPC activities.

bone marrow HSPC [3] = experiment: Competitive repopulation assay with bone marrow of 7Gy irradiated mice; format: in vivo, mouse
Method: In the hematopoietic system, the LTR-HSC or pluripotent HSC sits atop the hematopoietic hierarchy. LTR-HSCs subsequently generate “Short Term Repopulating” hematopoietic stem cells (STR-HSC), and then progenitor cells. After radiation induced myeloid-ablation, there is a significant loss of progenitor cells. To investigate the target cell population in irradiated mice, YH250 or DMSO were administrated to 7Gy irradiated animals 24 hours post radiation. Then, 7 or 14 days post radiation (6 or 13 days after YH250 or DMSO administration), bone marrow cells were recovered from animals and competitive repopulation assay was performed to study YH250 function in stimulating HSPC proliferation. 1×10^6 testing bone marrow cells were mixed with 2×10^5 competitor cells (from non-irradiated mice) and injected into lethally irradiated mice (9Gy) (FIG. 18A). HSPC cell number will be reflected in the short-term (1-2 months after BMT) or long-term (≥4 month of BMT) engraftment. […] The same observation also applies to cells isolated 14th day post 7Gy radiation.
The expanded LTR-HSC at day 6 post YH250 stimulation then starts to develop and give more STR-HSC by day 14 post radiation. There is no further LTR-HSC expanding from day 6 to day 13 post YH250. Thus, one dose of YH250 administrated 24 hours post 7Gy radiation stimulated symmetric non-differentiation LTR-HSC expansion and followed with STR-HSC expansion.

[4] = bone marrow cells recovered day 7 post radiation
[5] = bone marrow cells recovered day 14 post radiation

**Q.** For `COc1cccc(CNC(=O)N2C3CN(Cc4cc(Cl)cc(Cl)c4N(C)C)C(=O)[C@H](Cc4ccc(O)cc4)N3C(=O)CN2C)c1OC` (stereo partly shown) [YH250], which hESC pluripotency [1] is on record?
**A.** maintain pluripotency

**Q.** And the IC50 (Wnt/β-catenin pathway)?
**A.** < 0.1 µM

**Q.** And the “BrdU positive cells in HSPC compartment” value (bone marrow HSPC [2]; LSK34negt135neg, LSK34neg135neg48negt150posit, LSK34posit135negt cells)?
**A.** more BrdU positive cells

**Q.** What about the “engraftment level at day 140 and 164 vs day 40 after BMT” value (bone marrow HSPC [2]; donors treated every 48 hs for 4 round, p<0.01, n=5/group) of the same molecule?
**A.** significantly increased

**Q.** And the “engraftment level vs DMSO treated cells” value (bone marrow HSPC [2]; no statistical significance (n=5))?
**A.** higher than DMSO treated cells

**Q.** What about the long-term engraftment (bone marrow HSPC [3]; [4]) of the same molecule?
**A.** 4.1±1.6

**Q.** What about the short term engraftment (bone marrow HSPC [3]; [4]) of the same molecule?
**A.** 5.8±2.4

**Q.** And the long-term engraftment (bone marrow HSPC [3]; [5])?
**A.** 3.4±0.57

**Q.** And the short term engraftment (bone marrow HSPC [3]; [5])?
**A.** 12.3±2.0

**Q.** And the “engraftment vs DMSO treated animals, short term and long term” value (bone marrow HSPC [3]; cells recovered 7th day post 7Gy radiation, one dose 24 hours post radiation)?
**A.** better engraftment
